The target in experiment [1] is T1, Interstitial collagenase (Homo sapiens, UniProt P03956).
T1 sequence (P03956 whole entry): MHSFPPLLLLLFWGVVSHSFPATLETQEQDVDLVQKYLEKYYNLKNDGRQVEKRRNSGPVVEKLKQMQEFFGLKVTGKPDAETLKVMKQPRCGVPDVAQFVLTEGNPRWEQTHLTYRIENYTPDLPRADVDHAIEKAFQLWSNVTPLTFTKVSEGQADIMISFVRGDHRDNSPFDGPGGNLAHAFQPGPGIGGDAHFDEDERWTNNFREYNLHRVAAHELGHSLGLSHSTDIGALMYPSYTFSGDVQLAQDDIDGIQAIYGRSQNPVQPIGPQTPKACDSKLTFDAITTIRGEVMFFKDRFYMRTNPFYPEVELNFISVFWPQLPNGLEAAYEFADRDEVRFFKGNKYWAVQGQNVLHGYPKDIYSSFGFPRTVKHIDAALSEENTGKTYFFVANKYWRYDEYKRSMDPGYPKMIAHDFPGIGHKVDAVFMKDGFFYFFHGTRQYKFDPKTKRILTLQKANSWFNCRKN
The experiment is described as follows: Inhibition of recombinant human MMP1 expressed in Escherichia coli BL21 (DE3) using Mca-Pro-Leu-Gly-Leu-Dpa-Ala-Arg-NH2 as substrate incubated for 20 to 30 mins by fluorescence assay.

In experiment [2] the target is T2, 72 kDa type IV collagenase (Homo sapiens, UniProt P08253). Kind of experiment: Inhibition of recombinant human full length MMP2 using […] as substrate incubated for 20 to 30 mins by fluorescence microplate reader analysis.
The target in experiment [3] is T3, Stromelysin-1 (Homo sapiens, UniProt P08254). The experiment is described as follows: Inhibition of recombinant human MMP3 expressed in Escherichia coli BL21 (DE3) using [3H]transferrin as substrate incubated for 3 hrs by scintillation counter analysis.
Experiment [4] concerns the target T4, Matrilysin (Homo sapiens, UniProt P09237).
T4 sequence (P09237 whole entry): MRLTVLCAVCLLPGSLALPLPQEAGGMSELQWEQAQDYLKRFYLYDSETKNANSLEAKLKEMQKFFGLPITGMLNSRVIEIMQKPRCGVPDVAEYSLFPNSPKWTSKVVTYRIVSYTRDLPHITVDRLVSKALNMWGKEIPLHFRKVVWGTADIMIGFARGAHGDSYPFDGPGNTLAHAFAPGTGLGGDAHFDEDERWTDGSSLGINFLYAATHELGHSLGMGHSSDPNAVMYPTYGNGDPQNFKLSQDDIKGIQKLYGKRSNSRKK
The experiment is described as follows: Inhibition of recombinant human MMP7 using […] as substrate incubated for 20 to 30 mins by fluorescence microplate reader analysis.

In experiment [5] the target is T5, Neutrophil collagenase (Homo sapiens, UniProt P22894). The experiment is described as follows: Inhibition of recombinant human MMP8 using […] as substrate incubated for 20 to 30 mins by fluorescence microplate reader analysis.
Experiment [6] has as its target T6, Matrix metalloproteinase-9 (Homo sapiens, UniProt P14780). Kind of experiment: Inhibition of recombinant human MMP9 using […] as substrate incubated for 20 to 30 mins by fluorescence microplate reader analysis.
The target in experiment [7] is T6, Matrix metalloproteinase-9. The experiment is described as follows: Inhibition of MMP-9 (unknown origin).
For experiment [8], the target named is T1, Interstitial collagenase. Kind of experiment: Inhibition of MMP-1 (unknown origin).
In experiment [9] the target is T7, Collagenase 3 (Homo sapiens, UniProt P45452).
Description: Inhibition of MMP-13 (unknown origin)
In experiment [10] the target is Disintegrin and metalloproteinase domain-containing protein 17 (Homo sapiens, UniProt P78536). Kind of experiment: Inhibition of TACE (unknown origin).
The target in experiment [11] is T1, Interstitial collagenase. The experiment is described as follows: Inhibition of human MMP1 using Dnp-Pro-Cha-Gly-Cys(ME)-His-Ala-Lys(Nma)-NH2 as substrate preincubated for 0.5 hrs followed by substrate addition and measured after 6 hrs by fluorimeter analysis.
Experiment [12] addresses T2, 72 kDa type IV collagenase. Kind of experiment: Inhibition of human MMP2 using Dnp-Pro-Cha-Gly-Cys(ME)-His-Ala-Lys(Nma)-NH2 as substrate preincubated for 0.5 hrs followed by substrate addition and measured after 6 hrs by fluorimeter analysis.
Experiment [13] addresses T3, Stromelysin-1. The experiment is described as follows: Inhibition of human MMP3 using (7-methoxycoumarine-4-yl)-Arg-Pro-Lys-Pro-Tyr-Ala-Nva-Trp-Met-Lys(Dnp)-NH2 as substrate preincubated for 0.5 hrs followed by substrate addition and measured after 6 hrs by fluorimeter analysis.
In experiment [14] the target is T6, Matrix metalloproteinase-9. Kind of experiment: Inhibition of human MMP9 using Dnp-Pro-Cha-Gly-Cys(ME)-His-Ala-Lys(Nma)-NH2 as substrate preincubated for 0.5 hrs followed by substrate addition and measured after 6 hrs by fluorimeter analysis.
Experiment [15] addresses T7, Collagenase 3. Kind of experiment: Inhibition of human MMP13 using Dnp-Pro-Cha-Gly-Cys(ME)-His-Ala-Lys(Nma)-NH2 as substrate preincubated for 0.5 hrs followed by substrate addition and measured after 6 hrs by fluorimeter analysis.
Experiment [16] has as its target T6, Matrix metalloproteinase-9. The experiment is described as follows: Inhibition of MMP-9 (unknown origin) by fluorimetric assay.
In experiment [17] the target is T2, 72 kDa type IV collagenase. Kind of experiment: Inhibition of MMP-2 (unknown origin) by fluorimetric assay.
Experiment [18] has as its target T1, Interstitial collagenase. Kind of experiment: Inhibition of MMP-1 (unknown origin) by fluorimetric assay.
The target of experiment [19] is T2, 72 kDa type IV collagenase. Kind of experiment: Inhibition of human MMP2 incubated for 1 hrs followed by chromogenic substrate addition and measured after 30 mins by microplate photometer analysis.
Experiment [20] addresses T6, Matrix metalloproteinase-9. Kind of experiment: Inhibition of human MMP9 incubated for 1 hrs followed by chromogenic substrate addition and measured after 30 mins by microplate photometer analysis.
In experiment [21] the target is T2, 72 kDa type IV collagenase.
The target in experiment [22] is T5, Neutrophil collagenase. The experiment is described as follows: Inhibition of MMP-8 (unknown origin).
Experiment [23] has as its target T4, Matrilysin. Kind of experiment: Inhibition of MMP-7 (unknown origin).

The structures appear in SMILES notation.

T2 sequence (P08253 whole entry): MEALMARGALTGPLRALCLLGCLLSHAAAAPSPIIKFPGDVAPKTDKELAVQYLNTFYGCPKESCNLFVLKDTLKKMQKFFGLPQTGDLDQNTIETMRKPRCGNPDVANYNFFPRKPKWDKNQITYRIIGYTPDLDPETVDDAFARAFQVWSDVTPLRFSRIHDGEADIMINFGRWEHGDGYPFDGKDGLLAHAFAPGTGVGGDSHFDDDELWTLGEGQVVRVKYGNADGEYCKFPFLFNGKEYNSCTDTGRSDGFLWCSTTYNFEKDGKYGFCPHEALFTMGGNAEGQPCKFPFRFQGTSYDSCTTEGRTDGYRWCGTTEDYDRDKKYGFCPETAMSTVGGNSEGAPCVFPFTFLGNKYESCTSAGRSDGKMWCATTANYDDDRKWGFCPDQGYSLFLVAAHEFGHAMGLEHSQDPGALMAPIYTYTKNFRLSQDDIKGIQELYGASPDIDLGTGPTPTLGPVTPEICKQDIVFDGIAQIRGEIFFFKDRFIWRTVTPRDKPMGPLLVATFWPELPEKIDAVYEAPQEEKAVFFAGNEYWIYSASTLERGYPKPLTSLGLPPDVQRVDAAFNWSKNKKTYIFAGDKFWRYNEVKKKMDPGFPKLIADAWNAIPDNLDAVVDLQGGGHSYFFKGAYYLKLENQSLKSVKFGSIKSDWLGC
T6 sequence (P14780 whole entry): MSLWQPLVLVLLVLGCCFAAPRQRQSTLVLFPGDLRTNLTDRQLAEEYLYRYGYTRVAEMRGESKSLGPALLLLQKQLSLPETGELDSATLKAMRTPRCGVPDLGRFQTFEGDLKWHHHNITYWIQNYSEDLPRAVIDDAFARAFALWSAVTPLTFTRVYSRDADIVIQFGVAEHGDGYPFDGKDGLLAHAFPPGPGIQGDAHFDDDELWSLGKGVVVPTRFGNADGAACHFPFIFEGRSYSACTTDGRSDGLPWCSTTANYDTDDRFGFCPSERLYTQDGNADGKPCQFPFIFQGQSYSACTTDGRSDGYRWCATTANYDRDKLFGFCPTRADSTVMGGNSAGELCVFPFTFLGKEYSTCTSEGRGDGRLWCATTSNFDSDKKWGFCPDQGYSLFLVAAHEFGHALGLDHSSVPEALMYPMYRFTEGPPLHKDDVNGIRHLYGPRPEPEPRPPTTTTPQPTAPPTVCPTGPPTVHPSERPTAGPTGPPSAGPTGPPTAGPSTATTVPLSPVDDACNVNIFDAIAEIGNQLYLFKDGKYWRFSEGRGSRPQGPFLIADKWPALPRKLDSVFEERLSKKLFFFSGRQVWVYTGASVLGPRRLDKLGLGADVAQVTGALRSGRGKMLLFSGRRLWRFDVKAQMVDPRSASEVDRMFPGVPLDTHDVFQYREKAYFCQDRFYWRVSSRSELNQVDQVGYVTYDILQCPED
T3 sequence (P08254 whole entry): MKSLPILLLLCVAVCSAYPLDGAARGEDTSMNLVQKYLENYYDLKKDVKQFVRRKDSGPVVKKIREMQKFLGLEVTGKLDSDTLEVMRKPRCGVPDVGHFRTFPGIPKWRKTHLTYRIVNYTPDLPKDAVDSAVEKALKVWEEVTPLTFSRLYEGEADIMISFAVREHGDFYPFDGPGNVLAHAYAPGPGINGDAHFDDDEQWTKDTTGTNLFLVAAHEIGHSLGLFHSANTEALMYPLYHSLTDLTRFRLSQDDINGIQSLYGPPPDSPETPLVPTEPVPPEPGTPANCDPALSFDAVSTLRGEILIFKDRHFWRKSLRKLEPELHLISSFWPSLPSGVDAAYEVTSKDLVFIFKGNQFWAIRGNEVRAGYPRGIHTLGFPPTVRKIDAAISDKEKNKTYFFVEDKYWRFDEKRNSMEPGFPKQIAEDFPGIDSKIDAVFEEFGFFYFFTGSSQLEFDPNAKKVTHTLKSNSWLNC
T5 sequence (P22894 whole entry): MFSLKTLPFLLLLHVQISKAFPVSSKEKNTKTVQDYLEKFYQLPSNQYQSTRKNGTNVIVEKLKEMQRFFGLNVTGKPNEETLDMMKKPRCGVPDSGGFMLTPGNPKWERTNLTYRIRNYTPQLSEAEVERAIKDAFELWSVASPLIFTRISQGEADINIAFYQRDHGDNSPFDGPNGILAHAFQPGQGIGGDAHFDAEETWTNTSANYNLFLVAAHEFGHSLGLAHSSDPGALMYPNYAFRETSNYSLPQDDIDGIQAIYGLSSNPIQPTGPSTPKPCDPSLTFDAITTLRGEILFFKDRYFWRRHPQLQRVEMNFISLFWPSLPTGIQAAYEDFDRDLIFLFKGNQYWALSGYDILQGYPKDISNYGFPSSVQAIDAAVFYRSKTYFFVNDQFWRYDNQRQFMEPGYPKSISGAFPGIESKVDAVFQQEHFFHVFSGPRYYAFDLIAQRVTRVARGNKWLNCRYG
Chain of Disintegrin and metalloproteinase domain-containing protein 17 (P78536 whole entry, the tested form may be a part): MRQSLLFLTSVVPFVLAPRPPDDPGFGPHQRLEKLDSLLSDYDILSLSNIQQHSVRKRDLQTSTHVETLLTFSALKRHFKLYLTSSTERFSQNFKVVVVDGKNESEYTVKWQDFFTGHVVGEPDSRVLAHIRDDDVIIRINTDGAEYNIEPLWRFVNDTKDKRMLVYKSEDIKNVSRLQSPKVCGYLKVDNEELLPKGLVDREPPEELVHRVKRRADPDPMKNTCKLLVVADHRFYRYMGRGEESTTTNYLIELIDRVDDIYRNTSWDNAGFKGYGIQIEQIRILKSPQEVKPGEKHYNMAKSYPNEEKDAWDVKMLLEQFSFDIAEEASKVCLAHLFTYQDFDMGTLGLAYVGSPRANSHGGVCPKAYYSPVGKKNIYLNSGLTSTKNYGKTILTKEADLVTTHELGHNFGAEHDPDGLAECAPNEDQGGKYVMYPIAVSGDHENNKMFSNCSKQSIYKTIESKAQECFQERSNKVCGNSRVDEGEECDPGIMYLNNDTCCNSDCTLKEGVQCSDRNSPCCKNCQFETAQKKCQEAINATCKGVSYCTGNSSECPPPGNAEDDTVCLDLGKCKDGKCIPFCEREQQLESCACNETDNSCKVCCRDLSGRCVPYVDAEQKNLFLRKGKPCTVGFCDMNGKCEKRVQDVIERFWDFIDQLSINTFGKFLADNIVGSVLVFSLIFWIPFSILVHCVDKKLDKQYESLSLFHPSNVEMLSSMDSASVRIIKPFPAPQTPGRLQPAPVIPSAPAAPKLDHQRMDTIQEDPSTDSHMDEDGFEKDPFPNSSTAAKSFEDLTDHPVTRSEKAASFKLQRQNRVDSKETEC

On to `COc1ccc(S(=O)(=O)N2CCCC(C)(C)CC2C(=O)NO)cc1` (centres undefined), for which the IC50 at Interstitial collagenase [1] stood at 2.4 nM; in experiment [2] it was 1.4 nM; on Stromelysin-1 [3] it was 3.3 nM; at Matrilysin [4], 18 nM; at Neutrophil collagenase [5] it was 1.9 nM; in [6] it was 0.5 nM.

`COc1ccc(S(=O)(=O)N(c2c(C)cc(-c3cccc(C(F)(F)F)c3)cc2C(=O)NO)N(C)C)cc1`: the IC50 is 2 nM in [7], 74 nM against Interstitial collagenase [8], 39 nM on Collagenase 3 [9] and 633 nM in [10].

Consider `COc1ccc(S(=O)(=O)N(Cc2ccccc2)c2c(C(=O)NO)ccc3c(C(C)(C)C)cccc23)cc1`, for which the half-maximal inhibitory concentration (IC50) in experiment [7] amounted to 9 nM; against Interstitial collagenase [8], 3100 nM; at Collagenase 3 [9], 16 nM; in experiment [10], 401 nM.

On to `COc1ccc(S(=O)(=O)N(Cc2ccccn2)c2c(C)cc(-c3cccc(C(F)(F)F)c3)cc2C(=O)NO)cc1`, for which the IC50 in experiment [7] is 1 nM; against Collagenase 3 [9] it was 2 nM.

For `O=C(O)[C@H]1[C@H](CN2C(=O)c3ccccc3C2=O)CC[C@@H]1SCc1ccc(-c2ccc(Cl)cc2)cc1`, the IC50 on Interstitial collagenase [11] is 50000 nM; in experiment [12], 73 nM; against Stromelysin-1 [13], 45 nM; in [14], 13 nM; against Collagenase 3 [15] it was 129 nM.

With `CC1(C)NC(=O)N(C[C@H](CS(=O)(=O)c2ccc(-c3ccc(OC(F)(F)F)cc3)cc2)N(O)C=O)C1=O`, the IC50 in experiment [16] was 0.34 nM; in [17] it was 0.86 nM; on Interstitial collagenase [18] it was 82 nM.

Regarding `O=C(O)CC[C@@H](NC(=O)Cc1ccc(Br)cc1)C(=O)NCc1ccc([N+](=O)[O-])cc1`, the figures for the IC50 in [19] and in experiment [20] were 6400 nM and 4830 nM, respectively.

`CN(C)c1ccc(-c2cn(-c3ccc(S(=O)(=O)NC(Cc4ccccc4)C(=O)NO)cc3)nn2)cc1` (centres undefined): the IC50 in experiment [7] came out at 1.06 nM; in experiment [21] it was 0.32 nM.

With `COc1ccc(S(=O)(=O)N2CN(Cc3ccccc3)C(=O)CC2C(=O)NO)cc1` (centres undefined), the IC50 is 6.8 nM in experiment [7], 22.2 nM against Interstitial collagenase [8], 6.4 nM against Neutrophil collagenase [22] and more than 10000 nM against Matrilysin [23].

In the case of `CCCCOc1ccc(S(=O)(=O)C2(C(=O)NO)CCN(Cc3ccccc3)CC2)cc1`, the IC50 came out at 3 nM in experiment [7] and 16 nM against Collagenase 3 [9].

As usually defined, the IC50 is the concentration that gives 50% inhibition.

The values above are taken from ChEMBL document CHEMBL5233239, “Matrix metalloproteinase-9 (MMP-9) and its inhibitors in cancer: A minireview” (Eur J Med Chem, 2020).
